Test [1] deals with T1, BRD9 bromodomain (Flag-BRD9 P133-K239; Swiss Prot Q9H8M2) (Homo sapiens, UniProt Q9H8M2).
T1 construct: His-Flag-BRD9 (P133-K239); Swiss Prot Q9H8M2; His6 with TEV site (mgsshhhhhhenlyfq/) (N, cleaved yes); made in house
T1 sequence (Q9H8M2 133-239): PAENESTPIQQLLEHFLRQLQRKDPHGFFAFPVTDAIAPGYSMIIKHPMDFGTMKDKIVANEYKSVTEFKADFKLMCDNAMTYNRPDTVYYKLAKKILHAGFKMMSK
As to the kind of experiment: BRD9 Bromodomain TR-FRET Competition Binding Assay. Particulars: competition with biotinylated BRD9 ligand; 90 minutes at room temperature. How it is done:
Procedure: His-Flag-BRD9 (P133-K239; Swiss Prot Q9H8M2; SEQ ID NO:1 mgsshhhhhhenlyfq/gdykddddkgslevlfqg/[…] […]) was cloned, expressed, purified, and then treated with TEV protease. Cleaved His tag was removed by purification. The binding of a biotinylated small molecule ligand of BRD9 was assessed via the LANCE® TR-FRET platform (PerkinElmer), and the compounds were assayed for inhibitory activity against this interaction.
Results: A mixture of biotinylated-ligand and SureLight™ Allophycocyanin-Streptavidin (APC-SA, PerkinElmer AD0201) in 50 mM HEPES (pH 7.4), 50 mM NaCl, 1 mM TCEP (pH 7), 0.01% (v/v) Tween-20, 0.01% (w/v) bovine serum albumin was added to a white 384-well PerkinElmer Proxiplate Plus plate. DMSO or 3-fold serially diluted compounds were then added to the Proxiplate followed by addition of Flag-BRD9. After a 10-minute incubation at room temperature, Eu-W1024 anti-FLAG (PerkinElmer, AD0273) was added. The final reaction mixture that contained 3.75 nM biotinylated ligand, 3 nM Flag-BRD9, 7.5 nM SureLight™ Allophycocyanin-Streptavidin, and 0.2 nM Eu-W1024 anti-FLAG was incubated at room temperature for 90 minutes.
The plates were then read on a PerkinElmer Envision plate reader to determine the ratio of emission at 665 nm over 615 nm. […]

For test [2], the target named is T2, Nanoluciferase-BRD9 fusion protein (3×FLAG-NLuc-BRD9) in SYO-1 cells (Homo sapiens, UniProt Q9H8M2).
T2 construct: expressed in transfected cells; host or cells: SYO-1
T2 sequence (Q9H8M2 1-597): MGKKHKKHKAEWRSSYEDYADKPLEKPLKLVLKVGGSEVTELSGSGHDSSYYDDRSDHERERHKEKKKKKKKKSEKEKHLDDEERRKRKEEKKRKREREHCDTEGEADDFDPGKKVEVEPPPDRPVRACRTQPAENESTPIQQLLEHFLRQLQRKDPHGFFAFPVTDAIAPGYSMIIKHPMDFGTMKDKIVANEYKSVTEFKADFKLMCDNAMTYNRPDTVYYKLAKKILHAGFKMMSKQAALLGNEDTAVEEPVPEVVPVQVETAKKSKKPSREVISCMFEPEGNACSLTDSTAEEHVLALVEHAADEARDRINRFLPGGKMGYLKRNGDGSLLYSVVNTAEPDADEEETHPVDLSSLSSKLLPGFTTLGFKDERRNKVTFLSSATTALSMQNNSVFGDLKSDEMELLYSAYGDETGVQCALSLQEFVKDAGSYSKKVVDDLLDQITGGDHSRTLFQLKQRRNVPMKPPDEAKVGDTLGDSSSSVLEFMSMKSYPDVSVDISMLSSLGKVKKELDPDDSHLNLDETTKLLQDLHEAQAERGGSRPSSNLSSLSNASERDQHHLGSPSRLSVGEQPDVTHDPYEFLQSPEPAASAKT
As to the kind of experiment: SYO1 BRD9 NanoLuc Degradation Assay. Type of test: cell-based. Particulars: read-out: SYO1 BRD9-NanoLuc degradation IC50. A digest of the protocol:
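NanoLuc signal, read by Nano-Glo luminescence after 6 h compound exposure, gives % inhibition against DMSO-treated cells (high control) and cells given 1 μM of a standard BRD9 degrader (low control). Test compounds ran as 10-point 3-fold series, top 1 μM final, in duplicate on SYO-1 cells stably expressing 3×FLAG-NLuc-BRD9.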

The mark [3] stands for this setting: Table 6C, SYO-1 cells expressing 3×FLAG-NLuc-BRD9, 6 hours incubation, 1 μM top dose.
[4] abbreviates: Table 6B, SYO-1 cells expressing 3×FLAG-NLuc-BRD9, 6 hours incubation, 1 μM top dose.

Like-named read-outs stand apart in the source and are kept apart here.

One may read the IC50 as the midpoint of a concentration-inhibition curve.

Turning to `CNc1cc2c(=O)n(C)cc(-c3cc(OC)c(CN4CCC5(CC4)CN(C(=O)CCCOc4cccc6c4C(=O)N(C4CCC(=O)NC4=O)C6=O)CCO5)c(OC)c3)c2cn1` (centres unmarked) [Compound D16, 4-(4-(9-(2,6-dimethoxy-4-(2-methyl-7-(methylamino)-1-oxo-1,2-dihydro-2,6-naphthyridin-4-yl)benzyl)-1-oxa-4,9-diazaspiro[5.5]undecan-4-yl)-4-oxobutoxy)-2-(2,6-dioxopiperidin-3-yl)isoindoline-1,3-dione formic acid], the IC50 in test [1] was < 10 nM. Further, in test [2] (6 hours, SYO-1 cells expressing 3×FLAG-NLuc-BRD9, top dose 1 μM), the DC50 was < 10 nM. Turning to `COc1cc(-c2cn(C)c(=O)c3cc(N)ncc23)cc(OC)c1CN(C)C` [Compound B5, 7-amino-4-(4-((dimethylamino)methyl)-3,5-dimethoxyphenyl)-2-methyl-2,6-naphthyridin-1(2H)-one], in test [1], the 50% inhibitory concentration (IC50) is ≥ 10 nM. Still for that read-out and setting: the value for `CNc1cc2c(-c3cc(OC)c(CN(C)C)c(OC)c3)cn(C)c(=O)c2cn1` [Compound B1, 4-[4-[(dimethylamino)methyl]-3,5-dimethoxyphenyl]-2-methyl-6-(methylamino)-1,2-dihydro-2,7-naphthyridin-1-one] was < 10 nM; that for `COc1cc(-c2cn(C)c(=O)c3cc(NCC(=O)N(C)C)ncc23)cc(OC)c1CN(C)C` [Compound B6, 2-[(8-[4-[(dimethylamino)methyl]-3,5-dimethoxyphenyl]-6-methyl-5-oxo-2,6-naphthyridin-3-yl)amino]-N,N-dimethylacetamide formic acid] was ≥ 10 nM.

With `CNc1cc2c(=O)n(C)cc(-c3cc(OC)c(CN(C)C)c(OC)c3)c2cn1` [Compound B3, 4-[4-[(Dimethylamino)methyl]-3,5-dimethoxyphenyl]-2-methyl-7-(methylamino)-1,2-dihydro-2,6-naphthyridin-1-one], in test [1], the IC50 is ≥ 10 nM. Turning to `COc1cc(-c2cn(C)c(=O)c3cnc(N(C)C)cc23)cc(OC)c1CN(C)C` [Compound B2, 6-(dimethylamino)-4-[4-[(dimethylamino)methyl]-3,5-dimethoxyphenyl]-2-methyl-1,2-dihydro-2,7-naphthyridin-1-one], the IC50 in test [1] is < 10 nM. Same read-out and setting: the result for `COc1cc(-c2cn(C)c(=O)c3cnc(N)cc23)cc(OC)c1CN(C)C` [Compound B4, 6-amino-4-[4-[(dimethylamino)methyl]-3,5-dimethoxyphenyl]-2-methyl-1,2-dihydro-2,7-naphthyridin-1-one] reads ≥ 10 nM. In the case of `COc1cc(-c2cn(C)c(=O)c3cnc(N4CC(F)C4)cc23)cc(OC)c1CN1CCC(CN2CCC3(CC2)CN(c2ccc4c(c2)C(=O)N(C2CCC(=O)NC2=O)C4)C3)CC1` (centres unmarked) [Compound D206], the DC50 in test [2] (setting [3]) was < 10 nM. Consider `C=CCCn1cc(-c2cc(OC)c(CN3CCN(CCC4CCN(c5ccc6c(c5)C(=O)N(C5CCC(=O)NC5=O)C6=O)CC4)CC3)c(OC)c2)c2cc(N(C)C)ncc2c1=O` (centres unmarked) [Compound D135], for which, in test [2] (setting [4]), the DC50 is < 10 nM. `COc1cc(-c2nn(C)c(=O)c3cnc(N4CCC4)cc23)cc(OC)c1CN1CCC(CN2CCC3(CC2)CC(Oc2ccc4c(c2)C(=O)N(C2CCC(=O)NC2=O)C4)C3)CC1` (centres unmarked) [Compound D191]: the DC50 in test [2] (setting [3]) lay in the range of 100 to 1000 nM. Take `COc1cc(-c2cn(C)c(=O)c3cnc(N(C)C)cc23)cc(OC)c1CN1CCN(C(C)(C)COc2cccc3c2C(=O)N(C2CCC(=O)NC2=O)C3=O)CC1` (centres unmarked) [Compound D81]: the DC50 in test [2] (setting [4]) is < 10 nM. In the case of `COc1cc(-c2cn(C)c(=O)c3cnc(N(C)C)cc23)cc(OC)c1C1CN(c2ccc3c(c2)C(=O)N(C2CCC(=O)NC2=O)C3)C1` (centres unmarked) [Compound D257], the DC50 in test [2] (setting [3]) is < 10 nM. For the compound `COc1cc(-c2cn(C)c(=O)c3cnc(C4CC4)cc23)cc(OC)c1CN1CCC(CN2CCC3(CC2)CC(Oc2ccc4c(c2)C(=O)N(C2CCC(=O)NC2=O)C4)C3)CC1` (centres unmarked) [Compound D302], in test [2] (setting [3]), the DC50 is < 10 nM.

Regarding `COc1cc(-c2cn(C)c(=O)c3cnc(N4CCC4)cc23)ccc1CN1CCC2(CC1)CN(c1ccc3c(c1)C(=O)N(C1CCC(=O)NC1=O)C3)C2` (centres unmarked) [Compound D149], in test [2] (setting [4]), the DC50 was < 10 nM.

As for `[2H]C([2H])([2H])n1cc(-c2cc(OC)c(CN3CCN(CCC4CCN(c5ccc6c(c5)CN(C5CCC(=O)NC5=O)C6=O)CC4)CC3)c(OC)c2)c2cc(N(C)C)ncc2c1=O` (centres unmarked) [Compound D223], the DC50 in test [2] (setting [3]) was < 10 nM. On the same count and under the same terms, the result for `COc1cc2c(-c3cc(OC)c(CN4CCN(c5ccc6c(c5)C(=O)N(C5CCC(=O)NC5=O)C6)CC4)c(OC)c3)cn(C)c(=O)c2cn1` (centres unmarked) [Compound D217] reads < 10 nM; that for `COc1cc(-c2cn(C)c(=O)c3cnc(N4CCC4)cc23)cc(OC)c1CN1CCC2(CC1)CN(c1ccc3c(c1)CN(C1CCC(=O)NC1=O)C3=O)C2` (centres unmarked) [Compound D310], < 10 nM.

On to `COc1cc(-c2cn(C)c(=O)c3cnc(N4CCC4)cc23)cc(OC)c1CN1CC(CN2CCC3(CC2)CN(c2ccc4c(c2)C(=O)N(C2CCC(=O)N(C)C2=O)C4)C3)C1` (centres unmarked) [Compound D259], for which the DC50 in test [2] (setting [3]) was ≥ 1000 nM. Consider `CCc1cc(-c2cn(C)c(=O)c3cnc(N(C)C)cc23)cc(OC)c1CN1CCC(CN2CCC3(CC2)CC(Oc2ccc4c(c2)C(=O)N(C2CCC(=O)NC2=O)C4=O)C3)CC1` (centres unmarked) [Compound D112], for which the DC50 in test [2] (setting [4]) is < 10 nM. Regarding `[2H]C([2H])([2H])n1cc(-c2cc(OC)c(CN3CC(Oc4ccc5c(c4)CN(C4CCC(=O)NC4=O)C5=O)C3)c(OC)c2)c2cc(OC)ncc2c1=O` (centres unmarked) [Compound D242], the DC50 in test [2] (setting [3]) was < 10 nM.

For `COc1cc(-c2cn(C)c(=O)c3cnc(N(C)C)cc23)cc(OC)c1CN1CCC(CN2CCC3(CC2)CC(Oc2cc4c(cc2F)C(=O)N(C2CCC(=O)NC2=O)C4=O)C3)CC1` (centres unmarked) [Compound D129], the DC50 in test [2] (setting [4]) is < 10 nM. Consider `COc1cc(-c2cn(C)c(=O)c3ccc(N4CCC4)cc23)cc(OC)c1CN1CCC(N2CCN(c3ccc4c(c3)CN(C3CCC(=O)NC3=O)C4=O)CC2)CC1` (centres unmarked) [Compound D176], for which, in test [2] (setting [4]), the DC50 was < 10 nM.

`COc1cc(-c2cn(C)c(=O)c3cnc(N4CCOCC4)cc23)cc(OC)c1CN1CCN(c2ccc3c(c2)C(=O)N(C2CCC(=O)NC2=O)C3=O)CC1` (centres unmarked) [Compound D141]: the DC50 in test [2] (setting [4]) was < 10 nM.

As to `COc1cc(-c2cn(C)c(=O)c3cnc(N(C)C)cc23)cc(OC)c1CC1CCN(c2ccc3c(c2)C(=O)N(C2CCC(=O)NC2=O)C3=O)CC1` (centres unmarked) [Compound D133], in test [2] (setting [4]), the DC50 is < 10 nM.

In the case of `CCN(CC)c1cc2c(-c3cc(OC)c(CN4CCN(CCC5CCN(c6ccc7c(c6)C(=O)N(C6CCC(=O)NC6=O)C7=O)CC5)CC4)c(OC)c3)cn(C)c(=O)c2cn1` (centres unmarked) [Compound D115], the DC50 in test [2] (setting [4]) was < 10 nM. On the same count and under the same terms, the value for `CCc1cc(-c2cn(C)c(=O)c3cnc(N(C)C)cc23)cc(Cl)c1CN1CCC(CN2CCC3(CC2)CC(Oc2ccc4c(c2)C(=O)N(C2CCC(=O)NC2=O)C4=O)C3)CC1` (centres unmarked) [Compound D140] was < 10 nM.

With `COc1cc(-c2cn(C)c(=O)c3cnc(C4CC4)cc23)cc(OC)c1CN1CCC(CCN2CCN(c3ccc4c(c3)C(=O)N(C3CCC(=O)NC3=O)C4=O)CC2)CC1` (centres unmarked) [Compound D304], in test [2] (setting [3]), the DC50 is < 10 nM. The same measure, in the same setting: the result for `COc1cc2c(-c3cc(OC)c(CN4CCN(c5cccc(OC6CCC(=O)NC6=O)c5)CC4)c(OC)c3)cn(C)c(=O)c2cn1` (centres unmarked) [Compound D282] reads 10 to 100 nM.

Source of the values: patent publication US12391686B2, “Compounds and uses thereof” (Foghorn Therapeutics Inc., priority 2019, dated 2025).
